Results: PubChem BioAssay (NCI)
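Cultured in 96-well plates, cells were exposed to test compound for 48 hours across five concentrations. The concentration for 50% growth inhibition is given as GI50. TGI is the concentration that stops growth completely.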

Legend:
Assay in all cases: NCI-60 cell line screen, 48 h
MALME-3M melanoma = test system: MALME-3M melanoma
RPMI-8226 leukemia = test system: RPMI-8226 leukemia
LOX IMVI melanoma = test system: LOX IMVI melanoma
SK-MEL-28 melanoma = test system: SK-MEL-28 melanoma
NCI-H226 lung = test system: NCI-H226 lung
SF-539 CNS = test system: SF-539 CNS
NCI-H23 lung = test system: NCI-H23 lung
COLO 205 colon = test system: COLO 205 colon
HOP-92 NSCLC = test system: HOP-92 NSCLC
IGROV1 ovarian = test system: IGROV1 ovarian
U251 CNS = test system: U251 CNS
MOLT-4 leukemia = test system: MOLT-4 leukemia
TK-10 renal = test system: TK-10 renal
CAKI-1 renal = test system: CAKI-1 renal
HCT-116 colon = test system: HCT-116 colon
SNB-75 CNS = test system: SNB-75 CNS
UACC-257 melanoma = test system: UACC-257 melanoma
HS 578T breast = test system: HS 578T breast
HOP-62 NSCLC = test system: HOP-62 NSCLC
OVCAR-8 ovarian = test system: OVCAR-8 ovarian
A498 renal = test system: A498 renal
SK-MEL-5 melanoma = test system: SK-MEL-5 melanoma
CCRF-CEM leukemia = test system: CCRF-CEM leukemia
MDA-MB-231 breast = test system: MDA-MB-231 breast
UO-31 renal = test system: UO-31 renal
SNB-19 CNS = test system: SNB-19 CNS
OVCAR-5 ovarian = test system: OVCAR-5 ovarian
SF-295 CNS = test system: SF-295 CNS
SN12C renal = test system: SN12C renal
SK-MEL-2 melanoma = test system: SK-MEL-2 melanoma
A549 NSCLC = test system: A549 NSCLC
MCF7 breast = test system: MCF7 breast
HCC-2998 colon = test system: HCC-2998 colon
DU-145 prostate = test system: DU-145 prostate
OVCAR-3 ovarian = test system: OVCAR-3 ovarian
SR leukemia = test system: SR leukemia
K-562 leukemia = test system: K-562 leukemia
NCI-H460 lung = test system: NCI-H460 lung
UACC-62 melanoma = test system: UACC-62 melanoma
OVCAR-4 ovarian = test system: OVCAR-4 ovarian
SW-620 colon = test system: SW-620 colon
SK-OV-3 ovarian = test system: SK-OV-3 ovarian
786-0 renal = test system: 786-0 renal
SF-268 CNS = test system: SF-268 CNS
HCT-15 colon = test system: HCT-15 colon
ACHN renal = test system: ACHN renal
KM12 colon = test system: KM12 colon
M14 melanoma = test system: M14 melanoma
HT29 colon = test system: HT29 colon
PC-3 prostate = test system: PC-3 prostate
NCI/ADR-RES ovarian = test system: NCI/ADR-RES ovarian

Molecule COc1ccc(/C=C\c2cc(OC)c(OC)c(OC)c2)cc1N/C=C\C(=O)c1c[nH]c2ccccc12 has a GI50 (MALME-3M melanoma) of 5000 nM, a TGI (MALME-3M melanoma) of 57200 nM and a GI50 (RPMI-8226 leukemia) of less than 10 nM. The TGI (RPMI-8226 leukemia) was 19600 nM, the GI50 (LOX IMVI melanoma) was less than 10 nM and the TGI (LOX IMVI melanoma) was greater than 100000 nM. For the same molecule, the GI50 (SK-MEL-28 melanoma) was 1590 nM, the TGI (SK-MEL-28 melanoma) was greater than 100000 nM and the GI50 (NCI-H226 lung) was 16 nM. It also gave a TGI (NCI-H226 lung) greater than 100000 nM, a GI50 (SF-539 CNS) of less than 10 nM and a TGI (SF-539 CNS) of less than 10 nM. The GI50 (NCI-H23 lung) was less than 10 nM, the TGI (NCI-H23 lung) was greater than 100000 nM and the GI50 (COLO 205 colon) was less than 10 nM. The TGI (COLO 205 colon) was less than 10 nM, the GI50 (HOP-92 NSCLC) was 13.7 nM and the TGI (HOP-92 NSCLC) was 3640 nM. For the same molecule, the GI50 (IGROV1 ovarian) was less than 10 nM, the TGI (IGROV1 ovarian) was greater than 100000 nM and the GI50 (U251 CNS) was less than 10 nM. For the same molecule, the TGI (U251 CNS) was 47800 nM, the GI50 (MOLT-4 leukemia) was less than 10 nM and the TGI (MOLT-4 leukemia) was greater than 100000 nM. For the same molecule, the GI50 (TK-10 renal) was 40200 nM, the TGI (TK-10 renal) was greater than 100000 nM and the GI50 (CAKI-1 renal) was less than 10 nM. It also gave a TGI (CAKI-1 renal) greater than 100000 nM, a GI50 (HCT-116 colon) of less than 10 nM and a TGI (HCT-116 colon) of 10400 nM. For the same molecule, the GI50 (SNB-75 CNS) was less than 10 nM, the TGI (SNB-75 CNS) was greater than 100000 nM and the GI50 (UACC-257 melanoma) was greater than 100000 nM. For the same molecule, the TGI (UACC-257 melanoma) was greater than 100000 nM, the GI50 (HS 578T breast) was less than 10 nM and the TGI (HS 578T breast) was greater than 100000 nM. For the same molecule, the GI50 (HOP-62 NSCLC) was less than 10 nM, the TGI (HOP-62 NSCLC) was greater than 100000 nM and the GI50 (OVCAR-8 ovarian) was less than 10 nM. The TGI (OVCAR-8 ovarian) was greater than 100000 nM, the GI50 (A498 renal) was less than 10 nM and the TGI (A498 renal) was 15.3 nM. For the same molecule, the GI50 (SK-MEL-5 melanoma) was less than 10 nM, the TGI (SK-MEL-5 melanoma) was 20.1 nM and the GI50 (CCRF-CEM leukemia) was less than 10 nM. For the same molecule, the TGI (CCRF-CEM leukemia) was greater than 100000 nM, the GI50 (MDA-MB-231 breast) was less than 10 nM and the TGI (MDA-MB-231 breast) was 94400 nM. For the same molecule, the GI50 (UO-31 renal) was less than 10 nM, the TGI (UO-31 renal) was greater than 100000 nM and the GI50 (SNB-19 CNS) was less than 10 nM. The TGI (SNB-19 CNS) was greater than 100000 nM, the GI50 (OVCAR-5 ovarian) was less than 10 nM and the TGI (OVCAR-5 ovarian) was greater than 100000 nM. It also gave a GI50 (SF-295 CNS) of less than 10 nM, a TGI (SF-295 CNS) greater than 100000 nM and a GI50 (SN12C renal) of 22.4 nM. It also gave a TGI (SN12C renal) greater than 100000 nM, a GI50 (SK-MEL-2 melanoma) of less than 10 nM and a TGI (SK-MEL-2 melanoma) of 20300 nM. It also gave a GI50 (A549 NSCLC) of less than 10 nM, a TGI (A549 NSCLC) greater than 100000 nM and a GI50 (MCF7 breast) of less than 10 nM. It also gave a TGI (MCF7 breast) greater than 100000 nM, a GI50 (HCC-2998 colon) of less than 10 nM and a TGI (HCC-2998 colon) greater than 100000 nM. For the same molecule, the GI50 (DU-145 prostate) was less than 10 nM, the TGI (DU-145 prostate) was 14.2 nM and the GI50 (OVCAR-3 ovarian) was less than 10 nM. The TGI (OVCAR-3 ovarian) was less than 10 nM, the GI50 (SR leukemia) was less than 10 nM and the TGI (SR leukemia) was greater than 100000 nM. It also gave a GI50 (K-562 leukemia) of less than 10 nM, a TGI (K-562 leukemia) greater than 100000 nM and a GI50 (NCI-H460 lung) of less than 10 nM. For the same molecule, the TGI (NCI-H460 lung) was 20300 nM, the GI50 (UACC-62 melanoma) was 4380 nM and the TGI (UACC-62 melanoma) was 64200 nM. It also gave a GI50 (OVCAR-4 ovarian) of less than 10 nM, a TGI (OVCAR-4 ovarian) greater than 100000 nM and a GI50 (SW-620 colon) of less than 10 nM. It also gave a TGI (SW-620 colon) greater than 100000 nM, a GI50 (SK-OV-3 ovarian) of less than 10 nM and a TGI (SK-OV-3 ovarian) greater than 100000 nM. The GI50 (786-0 renal) was less than 10 nM, the TGI (786-0 renal) was greater than 100000 nM and the GI50 (SF-268 CNS) was less than 10 nM. The TGI (SF-268 CNS) was greater than 100000 nM, the GI50 (HCT-15 colon) was less than 10 nM and the TGI (HCT-15 colon) was greater than 100000 nM. The GI50 (ACHN renal) was less than 10 nM, the TGI (ACHN renal) was greater than 100000 nM and the GI50 (KM12 colon) was less than 10 nM. It also gave a TGI (KM12 colon) of 25.4 nM, a GI50 (M14 melanoma) of less than 10 nM and a TGI (M14 melanoma) of 47800 nM. It also gave a GI50 (HT29 colon) of less than 10 nM, a TGI (HT29 colon) greater than 100000 nM and a GI50 (PC-3 prostate) of less than 10 nM. For the same molecule, the TGI (PC-3 prostate) was greater than 100000 nM, the GI50 (NCI/ADR-RES ovarian) was less than 10 nM and the TGI (NCI/ADR-RES ovarian) was 43300 nM.
